Experimental data reported in ChEMBL document CHEMBL3785084, “Rational modification of the lead molecule: Enhancement in the anticancer and dihydrofolate reductase inhibitory activity” (Bioorg Med Chem Lett, 2016).

Assays:
[1] = Cytotoxicity against human DU145 cells assessed as cell growth at 10^-5 M after 48 hrs by sulforhodamine B assay; assay type: functional; details: DU-145, 48 h, read-out: Activity
NCI-H460 = assay: Cytotoxicity against human NCI-H460 cells assessed as cell growth at 10^-5 M after 48 hrs by sulforhodamine B assay; assay type: functional; details: NCI-H460, 48 h, read-out: Activity
NCI-H522 = assay: Cytotoxicity against human NCI-H522 cells assessed as cell growth at 10^-5 M after 48 hrs by sulforhodamine B assay; assay type: functional; details: NCI-H522, 48 h, read-out: Activity
[2] = Cytotoxicity against human SF295 cells assessed as cell growth at 10^-5 M after 48 hrs by sulforhodamine B assay; assay type: functional; details: SF-295, 48 h, read-out: Activity
CCRF-CEM = assay: Cytotoxicity against human CCRF-CEM cells assessed as cell growth at 10^-5 M after 48 hrs by sulforhodamine B assay; assay type: functional; details: read-out: Activity
786-0 = assay: Cytotoxicity against human 786-0 cells assessed as cell growth at 10^-5 M after 48 hrs by sulforhodamine B assay; assay type: functional; details: 786-0, 48 h, read-out: Activity
[3] = Cytotoxicity against human UACC62 cells assessed as cell growth at 10^-5 M after 48 hrs by sulforhodamine B assay; assay type: functional; details: UACC-62, 48 h, read-out: Activity
[4] = Cytotoxicity against human HCT116 cells assessed as cell growth at 10^-5 M after 48 hrs by sulforhodamine B assay; assay type: functional; details: HCT-116, 48 h, read-out: Activity
K562 = assay: Cytotoxicity against human K562 cells assessed as cell growth at 10^-5 M after 48 hrs by sulforhodamine B assay; assay type: functional; details: K562, 48 h, read-out: Activity
A549 = assay: Cytotoxicity against human A549 cells assessed as cell growth at 10^-5 M after 48 hrs by sulforhodamine B assay; assay type: functional; details: A549, 48 h, read-out: Activity
[5] = Cytotoxicity against human HCC2998 cells assessed as cell growth at 10^-5 M after 48 hrs by sulforhodamine B assay; assay type: functional; details: HCC 2998, 48 h, read-out: Activity
[6] = Cytotoxicity against human IGROV1 cells assessed as cell growth at 10^-5 M after 48 hrs by sulforhodamine B assay; assay type: functional; details: IGROV-1, 48 h, read-out: Activity
MCF7 [7] = assay: Cytotoxicity against human MCF7 cells assessed as cell growth at 10^-5 M after 48 hrs by sulforhodamine B assay; assay type: functional; details: MCF7, 48 h, read-out: Activity
T47D = assay: Cytotoxicity against human T47D cells assessed as cell growth at 10^-5 M after 48 hrs by sulforhodamine B assay; assay type: functional; details: read-out: Activity
NCI-H23 [8] = assay: Cytotoxicity against human NCI-H23 cells assessed as cell growth at 10^-5 M after 48 hrs by sulforhodamine B assay; assay type: functional; details: NCI-H23, 48 h, read-out: Activity
KM12 = assay: Cytotoxicity against human KM12 cells assessed as cell growth at 10^-5 M after 48 hrs by sulforhodamine B assay; assay type: functional; details: KM12, 48 h, read-out: Activity
[9] = Cytotoxicity against human HCT15 cells assessed as cell growth at 10^-5 M after 48 hrs by sulforhodamine B assay; assay type: functional; details: HCT-15, 48 h, read-out: Activity
Malme-3M = assay: Cytotoxicity against human MALME-3M cells assessed as cell growth at 10^-5 M after 48 hrs by sulforhodamine B assay; assay type: functional; details: read-out: Activity
[10] = Cytotoxicity against human RPMI8226 cells assessed as cell growth at 10^-5 M after 48 hrs by sulforhodamine B assay; assay type: functional; details: RPMI-8226, 48 h, read-out: Activity
SK-MEL-28 = assay: Cytotoxicity against human SK-MEL-28 cells assessed as cell growth at 10^-5 M after 48 hrs by sulforhodamine B assay; assay type: functional; details: SK-MEL-28, 48 h, read-out: Activity
[11] = Cytotoxicity against human Caki1 cells assessed as cell growth at 10^-5 M after 48 hrs by sulforhodamine B assay; assay type: functional; details: CAKI-1, 48 h, read-out: Activity
cells [12] = details: Homo sapiens, HCT-15, 48 h
Description: Cytotoxicity against human HCT15 cells after 48 hrs by sulforhodamine B assay

cells [13] = details: Homo sapiens, COLO 205, 48 h
Description: Cytotoxicity against human COLO205 cells after 48 hrs by sulforhodamine B assay

cells [14] = details: Homo sapiens, SNB-75, 48 h
Description: Cytotoxicity against human SNB75 cells after 48 hrs by sulforhodamine B assay

cells [15] = details: Homo sapiens, SNB-19, 48 h
Description: Cytotoxicity against human SNB19 cells after 48 hrs by sulforhodamine B assay

ACHN = assay: cells; details: Homo sapiens, 48 h
Description: Cytotoxicity against human ACHN cells after 48 hrs by sulforhodamine B assay

MCF7 [16] = assay: cells; details: Homo sapiens, MCF7, 48 h
Description: Cytotoxicity against human MCF7 cells after 48 hrs by sulforhodamine B assay

cells [17] = details: Homo sapiens, OVCAR-5, 48 h
Description: Cytotoxicity against human OVCAR5 cells after 48 hrs by sulforhodamine B assay

NCI-H23 [18] = assay: cells; details: Homo sapiens, NCI-H23, 48 h
Description: Cytotoxicity against human NCI-H23 cells after 48 hrs by sulforhodamine B assay

cells [19] = details: Homo sapiens, HL-60, 48 h
Description: Cytotoxicity against human HL-60(TB) cells after 48 hrs by sulforhodamine B assay

cells [20] = details: Homo sapiens, IGROV-1, 48 h
Description: Cytotoxicity against human IGROV1 cells after 48 hrs by sulforhodamine B assay

cells [21] = details: Homo sapiens, PC-3, 48 h
Description: Cytotoxicity against human PC3 cells after 48 hrs by sulforhodamine B assay

cells [22] = details: Homo sapiens, SF-539, 48 h
Description: Cytotoxicity against human SF539 cells after 48 hrs by sulforhodamine B assay

cells [23] = details: Homo sapiens, SF-295, 48 h
Description: Cytotoxicity against human SF295 cells after 48 hrs by sulforhodamine B assay

NCI-H226 = assay: cells; details: Homo sapiens, NCI-H226, 48 h
Description: Cytotoxicity against human NCI-H226 cells after 48 hrs by sulforhodamine B assay

cells [24] = details: Homo sapiens, HOP-62, 48 h
Description: Cytotoxicity against human HOP62 cells after 48 hrs by sulforhodamine B assay

MDA-MB-231 = assay: cells; details: Homo sapiens, MDA-MB-231, 48 h
Description: Cytotoxicity against human MDA-MB-231 cells after 48 hrs by sulforhodamine B assay

`CN1C(=O)C(=Cc2cn(CC(O)Cn3cc(C=C4C(=O)N(C)C(=O)N(C)C4=O)c4ccccc43)c3ccccc23)C(=O)N(C)C1=O` showed a growth at 10 µM [1] of 106%, a growth at 10 µM (NCI-H460) of 33.1% and a growth at 10 µM (NCI-H522) of 108%. The growth at 10 µM [2] was 107%, the growth at 10 µM (CCRF-CEM) was 98.3% and the growth at 10 µM (786-0) was 100%. For the same compound, the growth at 10 µM [3] was 88.3%, the growth at 10 µM [4] was 80.3% and the growth at 10 µM (K562) was 97.3%. It also gave a growth at 10 µM (A549) of 96.8%, a growth at 10 µM [5] of 104% and a growth at 10 µM [6] of 78.8%. It also gave a growth at 10 µM (MCF7 [7]) of 91.8%, a growth at 10 µM (T47D) of 91.8% and a growth at 10 µM (NCI-H23 [8]) of 87.9%. It also gave a growth at 10 µM (KM12) of 94.3%, a growth at 10 µM [9] of 105% and a growth at 10 µM (Malme-3M) of 87.7%. It also gave a growth at 10 µM [10] of 86.2%, a growth at 10 µM (SK-MEL-28) of 109% and a growth at 10 µM [11] of 90.8%.
`O=C1Nc2ccccc2/C1=C/c1cn(CC(O)Cn2cc(/C=C3\C(=O)Nc4ccccc43)c3ccccc32)c2ccccc12` (stereo not given) gave a growth at 10 µM [1] of -90.5%, a growth at 10 µM (NCI-H460) of -65.1% and a growth at 10 µM (NCI-H522) of -17.4%. The growth at 10 µM [2] was -84.7%, the growth at 10 µM (CCRF-CEM) was -30.6% and the GI50 (cells [12]) was 1.7 µM. For the same compound, the TGI (cells [12]) was 3.7 µM, the CC50 (cells [12]; read-out: LC50) was 7.7 µM and the growth at 10 µM (786-0) was -70.8%. For the same compound, the growth at 10 µM [3] was -75.2%, the GI50 (cells [13]) was 1.6 µM and the TGI (cells [13]) was 3.6 µM. The GI50 (cells [14]) was 1.3 µM, the TGI (cells [14]) was 2.9 µM and the CC50 (cells [14]; read-out: LC50) was 6.4 µM. For the same compound, the GI50 (cells [15]) was 1.2 µM, the TGI (cells [15]) was 3.8 µM and the CC50 (cells [15]; read-out: LC50) was over 100 µM. The growth at 10 µM [4] was -64.2%, the growth at 10 µM (K562) was -16.7% and the GI50 (ACHN) was 1.6 µM. The TGI (ACHN) was 3.9 µM, the CC50 (ACHN; read-out: LC50) was 9.3 µM and the GI50 (MCF7 [16]) was 0.45 µM. The TGI (MCF7 [16]) was 1.8 µM, the growth at 10 µM (A549) was -11.6% and the GI50 (cells [17]) was 3.4 µM. It also gave a TGI (cells [17]) of 4.5 µM, a CC50 (cells [17]; read-out: LC50) of 43.6 µM and a growth at 10 µM [5] of -16.9%. For the same compound, the GI50 (NCI-H23 [18]) was 1.5 µM, the TGI (NCI-H23 [18]) was 3.3 µM and the CC50 (NCI-H23 [18]; read-out: LC50) was 7.2 µM. It also gave a GI50 (cells [19]) of 2.9 µM, a TGI (cells [19]) of 10.9 µM and a CC50 (cells [19]; read-out: LC50) of 57.5 µM. The GI50 (cells [20]) was 0.47 µM, the TGI (cells [20]) was 1.9 µM and the CC50 (cells [20]; read-out: LC50) was 5.3 µM. For the same compound, the GI50 (cells [21]) was 1.2 µM, the TGI (cells [21]) was 2.6 µM and the CC50 (cells [21]; read-out: LC50) was 5.8 µM. It also gave a growth at 10 µM [6] of -67.4%, a GI50 (cells [22]) of 1.5 µM and a TGI (cells [22]) of 3.1 µM. It also gave a CC50 (cells [22]; read-out: LC50) of 6.1 µM, a growth at 10 µM (MCF7 [7]) of -67.5% and a GI50 (cells [23]) of 1.6 µM. It also gave a TGI (cells [23]) of 3.2 µM, a CC50 (cells [23]; read-out: LC50) of 6.4 µM and a growth at 10 µM (T47D) of -46.1%. It also gave a growth at 10 µM (NCI-H23 [8]) of -67.3%, a growth at 10 µM (KM12) of -80.9% and a growth at 10 µM [9] of -69.8%. The growth at 10 µM (Malme-3M) was -76%, the growth at 10 µM [10] was -41.7% and the GI50 (NCI-H226) was 1.6 µM. For the same compound, the TGI (NCI-H226) was 3.5 µM, the CC50 (NCI-H226; read-out: LC50) was 7.5 µM and the GI50 (cells [24]) was 1.4 µM. It also gave a TGI (cells [24]) of 3.06 µM, a CC50 (cells [24]; read-out: LC50) of 6.6 µM and a GI50 (MDA-MB-231) of 1.2 µM. It also gave a TGI (MDA-MB-231) of 2.7 µM, a CC50 (MDA-MB-231; read-out: LC50) of 5.7 µM and a growth at 10 µM (SK-MEL-28) of -85%. It also gave a growth at 10 µM [11] of 9.83%.
With `CC1=NN(c2cccc(Cl)c2)C(=O)/C1=C\c1cn(CC(O)Cn2cc(/C=C3\C(=O)N(c4cccc(Cl)c4)N=C3C)c3ccccc32)c2ccccc12` the growth at 10 µM [1] was 111%, the growth at 10 µM (NCI-H460) was 111% and the growth at 10 µM (NCI-H522) was 97.6%. For the same compound, the growth at 10 µM [2] was 111%, the growth at 10 µM (CCRF-CEM) was 106% and the growth at 10 µM (786-0) was 110%. The growth at 10 µM [3] was 112%, the growth at 10 µM [4] was 99.3% and the growth at 10 µM (K562) was 101%. For the same compound, the growth at 10 µM (A549) was 94.1%, the growth at 10 µM [5] was 102% and the growth at 10 µM [6] was 104%. It also gave a growth at 10 µM (MCF7 [7]) of 97.9%, a growth at 10 µM (T47D) of 88% and a growth at 10 µM (NCI-H23 [8]) of 105%. For the same compound, the growth at 10 µM (KM12) was 100%, the growth at 10 µM [9] was 106% and the growth at 10 µM (Malme-3M) was 89.6%. The growth at 10 µM [10] was 109%, the growth at 10 µM (SK-MEL-28) was 109% and the growth at 10 µM [11] was 98.8%.
Work on `O=C1NC(=O)C(=Cc2cn(CC(O)Cn3cc(C=C4C(=O)NC(=O)NC4=O)c4ccccc43)c3ccccc23)C(=O)N1` yielded a growth at 10 µM [1] of 104%, a growth at 10 µM (NCI-H460) of 55.1% and a growth at 10 µM (NCI-H522) of 97.1%. For the same compound, the growth at 10 µM [2] was 103%, the growth at 10 µM (CCRF-CEM) was 105% and the growth at 10 µM (786-0) was 91.3%. It also gave a growth at 10 µM [3] of 106%, a growth at 10 µM [4] of 79.2% and a growth at 10 µM (K562) of 107%. It also gave a growth at 10 µM (A549) of 85.9%, a growth at 10 µM [5] of 94.6% and a growth at 10 µM [6] of 97.3%. It also gave a growth at 10 µM (MCF7 [7]) of 91.1%, a growth at 10 µM (T47D) of 91.8% and a growth at 10 µM (NCI-H23 [8]) of 94.7%. For the same compound, the growth at 10 µM (KM12) was 94%, the growth at 10 µM [9] was 103% and the growth at 10 µM (Malme-3M) was 97.7%. It also gave a growth at 10 µM [10] of 98.5%, a growth at 10 µM (SK-MEL-28) of 111% and a growth at 10 µM [11] of 101%.
